Test results taken from patent US20240240226A1, “FLUOROGENIC ASSAY FOR RAPID SCREENING OF BACTERIAL BETA-LACTAMASE ACTIVITY” (The Board of Trustees of the Leland Stanford Junior …, priority 2021, published 2024).
Each block holds one molecule with its values, some of them ahead of it.

Columns and labels:
[1] = target: T1, horseradish peroxidase (HRP) (Armoracia rusticana, UniProt P00433); assay: Amplex red fluorescence turn-on with HRP and H2O2; assay type: biochemical; settings: HRP 1 unit/mL, H2O2 1 uM, 10 μM AR in PBS, room temperature, 5 min
T1 sequence (P00433 31-338): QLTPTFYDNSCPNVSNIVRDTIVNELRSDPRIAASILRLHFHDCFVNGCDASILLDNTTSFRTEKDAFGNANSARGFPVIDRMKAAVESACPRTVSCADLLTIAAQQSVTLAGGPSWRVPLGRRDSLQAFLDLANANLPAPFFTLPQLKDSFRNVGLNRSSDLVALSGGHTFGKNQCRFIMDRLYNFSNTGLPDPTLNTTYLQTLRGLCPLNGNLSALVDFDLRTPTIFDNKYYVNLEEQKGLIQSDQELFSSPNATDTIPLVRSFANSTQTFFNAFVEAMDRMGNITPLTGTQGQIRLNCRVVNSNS
Description: FIG. 6 illustrates the fluorescence spectra of CDA and Amplex red. a) Fluorescent emission spectra of PBS, CDA, and AR (10 μM probes in PBS; excitation, 525 nm). b) Fluorescent emission spectra of CDA treated with esterase (1 μg/mL), TEM-1 Bla (100 nM) and H2O2 (1 mM) at room temperature for 8 hours. c) Fluorescent emission spectra of AR and AR treated with HRP and H2O2 at room temperature for 5 min (10 μM AR in PBS, HRP 1 unit/mL, H2O2 1 uM) (excitation, 525 nm). A.U. indicates arbitrary units.
The synthesis of CDA is outlined in Scheme 1 (FIG. 28). DARR was prepared from resazurin sodium salt through reduction and acetylation (Han et al., Chemistry (2016) 11: 818-822) and conjugated to the oxidized cephalosporin chloride with a self-immolative linker 4-mercaptobenzyl alcohol to afford CDA after reduction and deprotection. When incubated with a recombinant class A cephalosporin-hydrolyzing β-lactamase TEM-1 (TEM-1 Bla, FIGS. 7 and 8), esterase, and hydrogen peroxide (H2O2), CDA generated approximately 1200-fold fluorescence turn-on (FIGS. 1b and 6b).

esterase = assay: DARR response to esterase and H2O2; assay type: biochemical; settings: esterase 1 μg/mL, different concentrations of H2O2, room temperature
Description: FIG. 11 illustrates that esterase sensitizes DARR in response to H2O2. a) Structure of DARR and its hydrolysis by esterase and oxidation into fluorescent resorufin by H2O2. b) Fluorescence enhancement of DARR treated with esterase (1 μg/mL) and different concentrations of H2O2 at room temperature. Data were collected on a Tecan Safire microplate reader with excitation at 570 nm and emission at 600 nm. A.U. indicates arbitrary units.
As oxidation is the essential step in converting β-lactamase/esterase processed CDA to resorufin, the stability of CDA was evaluated in different concentrations of H2O2 (FIG. 2a). […] The sulfur center of CDA was also stable in H2O2 (1 mM) (FIG. 9).

[2] = pH=8; cited from earlier work

- fluorescence turn-on [1]: 413 fold
SMILES: CC(=O)N1c2ccc(O)cc2Oc2cc(O)ccc21 [Amplex red, 10-Acetyl-3,7-dihydroxyphenoxazine]

- response to esterase (esterase): fast response to esterase
SMILES: CC(=O)Oc1ccc2c(c1)Oc1cc(OC(C)=O)ccc1N2 [DARR, 10H-phenoxazine-3,7-diyl diacetate]

SMILES: O=c1ccc2nc3ccc(O)cc3oc-2c1 [resorufin]
- fluorescence quantum yield ϕ [2]: 0.75
